Results reported in the NIST ThermoML archive (doi:10.1016/j.fluid.2013.07.012).
± gives the expanded uncertainty stated by the source.

Test: xn = mol fraction of the nth substance listed
Settings: 101 kPa, Liquid, Direct current cell with electrodes

**Q.** Which results are given for `CCN(CC)CCO.Cl` [2-(diethylamino)ethanol hydrochloride] + OCC(O)CO?
**A.** electrical conductivity (298.15 K, x1 = 0.2): 0.0487 ± 0.0013 S/m; electrical conductivity (298.15 K, x1 = 0.25): 0.0602 ± 0.0016 S/m; electrical conductivity (298.15 K, x1 = 0.34): 0.075 ± 0.002 S/m; electrical conductivity (303.15 K, x1 = 0.2): 0.078 ± 0.001 S/m; electrical conductivity (303.15 K, x1 = 0.25): 0.0958 ± 0.0011 S/m; electrical conductivity (303.15 K, x1 = 0.34): 0.118 ± 0.0019 S/m; electrical conductivity (308.15 K, x1 = 0.2): 0.11 ± 0.0014 S/m; electrical conductivity (308.15 K, x1 = 0.25): 0.104 ± 0.0013 S/m; electrical conductivity (308.15 K, x1 = 0.34): 0.164 ± 0.0019 S/m; electrical conductivity (313.15 K, x1 = 0.2): 0.139 ± 0.0017 S/m; electrical conductivity (313.15 K, x1 = 0.25): 0.156 ± 0.0022 S/m; electrical conductivity (313.15 K, x1 = 0.34): 0.207 ± 0.0022 S/m; electrical conductivity (318.15 K, x1 = 0.2): 0.188 ± 0.002 S/m; electrical conductivity (318.15 K, x1 = 0.25): 0.211 ± 0.0022 S/m; electrical conductivity (318.15 K, x1 = 0.34): 0.2716 ± 0.0027 S/m; electrical conductivity (323.15 K, x1 = 0.2): 0.2357 ± 0.0018 S/m; electrical conductivity (323.15 K, x1 = 0.25): 0.264 ± 0.0027 S/m; electrical conductivity (323.15 K, x1 = 0.34): 0.3381 ± 0.0024 S/m; electrical conductivity (328.15 K, x1 = 0.2): 0.2716 ± 0.0019 S/m; electrical conductivity (328.15 K, x1 = 0.25): 0.3426 ± 0.003 S/m; electrical conductivity (328.15 K, x1 = 0.34): 0.3903 ± 0.0031 S/m; electrical conductivity (333.15 K, x1 = 0.2): 0.3246 ± 0.0026 S/m; electrical conductivity (333.15 K, x1 = 0.25): 0.4086 ± 0.003 S/m; electrical conductivity (333.15 K, x1 = 0.34): 0.4878 ± 0.0038 S/m; electrical conductivity (338.15 K, x1 = 0.2): 0.3962 ± 0.0029 S/m; electrical conductivity (338.15 K, x1 = 0.25): 0.4916 ± 0.0034 S/m; electrical conductivity (338.15 K, x1 = 0.34): 0.5754 ± 0.0033 S/m; electrical conductivity (343.15 K, x1 = 0.2): 0.4646 ± 0.0028 S/m; electrical conductivity (343.15 K, x1 = 0.25): 0.5748 ± 0.0032 S/m; electrical conductivity (343.15 K, x1 = 0.34): 0.6521 ± 0.004 S/m; electrical conductivity (348.15 K, x1 = 0.2): 0.5335 ± 0.003 S/m; electrical conductivity (348.15 K, x1 = 0.25): 0.6474 ± 0.0028 S/m; electrical conductivity (348.15 K, x1 = 0.34): 0.7754 ± 0.0052 S/m; electrical conductivity (353.15 K, x1 = 0.2): 0.6095 ± 0.0031 S/m; electrical conductivity (353.15 K, x1 = 0.25): 0.71 ± 0.01 S/m; electrical conductivity (353.15 K, x1 = 0.34): 0.9109 ± 0.0055 S/m

**Q.** With `C[P+](c1ccccc1)(c1ccccc1)c1ccccc1.[Br-]` [methyltriphenylphosphonium bromide] + OCC(O)CO as the compound, how does the electrical conductivity (298.15 K, x1 = 0.2) read?
**A.** 0.0116 ± 0.0006 S/m

**Q.** What about the electrical conductivity (298.15 K, x1 = 0.25) of the same compound?
**A.** 0.0103 ± 0.0006 S/m

**Q.** What about the electrical conductivity (298.15 K, x1 = 0.34) of the same compound?
**A.** 0.0062 ± 0.0006 S/m

**Q.** And the electrical conductivity (303.15 K, x1 = 0.2)?
**A.** 0.0198 ± 0.0006 S/m

**Q.** What about the electrical conductivity (303.15 K, x1 = 0.25) of the same compound?
**A.** 0.0172 ± 0.0006 S/m

**Q.** And the electrical conductivity (303.15 K, x1 = 0.34)?
**A.** 0.0124 ± 0.0006 S/m

**Q.** And the electrical conductivity (308.15 K, x1 = 0.2)?
**A.** 0.037 ± 0.001 S/m

**Q.** And the electrical conductivity (308.15 K, x1 = 0.25)?
**A.** 0.0319 ± 0.0006 S/m

**Q.** And the electrical conductivity (308.15 K, x1 = 0.34)?
**A.** 0.0186 ± 0.0006 S/m

**Q.** And the electrical conductivity (313.15 K, x1 = 0.2)?
**A.** 0.041 ± 0.001 S/m

**Q.** And the electrical conductivity (313.15 K, x1 = 0.25)?
**A.** 0.0394 ± 0.0006 S/m

**Q.** What about the electrical conductivity (313.15 K, x1 = 0.34) of the same compound?
**A.** 0.0277 ± 0.0006 S/m

**Q.** What about the electrical conductivity (318.15 K, x1 = 0.2) of the same compound?
**A.** 0.0607 ± 0.0006 S/m

**Q.** What about the electrical conductivity (318.15 K, x1 = 0.25) of the same compound?
**A.** 0.0549 ± 0.0006 S/m

**Q.** What about the electrical conductivity (318.15 K, x1 = 0.34) of the same compound?
**A.** 0.0405 ± 0.0006 S/m

**Q.** And the electrical conductivity (323.15 K, x1 = 0.2)?
**A.** 0.0816 ± 0.0006 S/m

**Q.** What about the electrical conductivity (323.15 K, x1 = 0.25) of the same compound?
**A.** 0.0719 ± 0.0006 S/m

**Q.** And the electrical conductivity (323.15 K, x1 = 0.34)?
**A.** 0.0496 ± 0.0006 S/m

**Q.** What about the electrical conductivity (328.15 K, x1 = 0.2) of the same compound?
**A.** 0.0965 ± 0.0006 S/m

**Q.** And the electrical conductivity (328.15 K, x1 = 0.25)?
**A.** 0.0927 ± 0.0006 S/m

**Q.** And the electrical conductivity (328.15 K, x1 = 0.34)?
**A.** 0.0701 ± 0.0006 S/m

**Q.** What about the electrical conductivity (333.15 K, x1 = 0.2) of the same compound?
**A.** 0.1233 ± 0.0006 S/m

**Q.** What about the electrical conductivity (333.15 K, x1 = 0.25) of the same compound?
**A.** 0.1124 ± 0.0006 S/m

**Q.** What about the electrical conductivity (333.15 K, x1 = 0.34) of the same compound?
**A.** 0.0858 ± 0.0006 S/m

**Q.** And the electrical conductivity (338.15 K, x1 = 0.2)?
**A.** 0.1608 ± 0.0006 S/m

**Q.** What about the electrical conductivity (338.15 K, x1 = 0.25) of the same compound?
**A.** 0.1487 ± 0.0006 S/m

**Q.** What about the electrical conductivity (338.15 K, x1 = 0.34) of the same compound?
**A.** 0.116 ± 0.001 S/m

**Q.** What about the electrical conductivity (343.15 K, x1 = 0.2) of the same compound?
**A.** 0.1971 ± 0.0007 S/m

**Q.** What about the electrical conductivity (343.15 K, x1 = 0.25) of the same compound?
**A.** 0.1778 ± 0.0006 S/m

**Q.** And the electrical conductivity (343.15 K, x1 = 0.34)?
**A.** 0.1493 ± 0.0006 S/m

**Q.** And the electrical conductivity (348.15 K, x1 = 0.2)?
**A.** 0.2874 ± 0.0007 S/m

**Q.** And the electrical conductivity (348.15 K, x1 = 0.25)?
**A.** 0.2196 ± 0.0006 S/m

**Q.** What about the electrical conductivity (348.15 K, x1 = 0.34) of the same compound?
**A.** 0.1811 ± 0.0006 S/m

**Q.** What about the electrical conductivity (353.15 K, x1 = 0.2) of the same compound?
**A.** 0.3594 ± 0.0007 S/m

**Q.** And the electrical conductivity (353.15 K, x1 = 0.25)?
**A.** 0.2599 ± 0.0007 S/m

**Q.** And the electrical conductivity (353.15 K, x1 = 0.34)?
**A.** 0.2154 ± 0.0006 S/m

**Q.** With `C[P+](c1ccccc1)(c1ccccc1)c1ccccc1.[Br-]` [methyltriphenylphosphonium bromide] + OCCO as the compound, how does the electrical conductivity (298.15 K, x1 = 0.16) read?
**A.** 0.194 ± 0.0026 S/m

**Q.** What about the electrical conductivity (298.15 K, x1 = 0.2) of the same compound?
**A.** 0.156 ± 0.0026 S/m

**Q.** What about the electrical conductivity (298.15 K, x1 = 0.25) of the same compound?
**A.** 0.109 ± 0.0021 S/m

**Q.** And the electrical conductivity (303.15 K, x1 = 0.16)?
**A.** 0.257 ± 0.002 S/m

**Q.** And the electrical conductivity (303.15 K, x1 = 0.2)?
**A.** 0.219 ± 0.0023 S/m

**Q.** What about the electrical conductivity (303.15 K, x1 = 0.25) of the same compound?
**A.** 0.16 ± 0.0018 S/m

**Q.** And the electrical conductivity (308.15 K, x1 = 0.16)?
**A.** 0.3103 ± 0.0026 S/m

**Q.** And the electrical conductivity (308.15 K, x1 = 0.2)?
**A.** 0.2649 ± 0.0022 S/m

**Q.** What about the electrical conductivity (308.15 K, x1 = 0.25) of the same compound?
**A.** 0.1914 ± 0.0019 S/m

**Q.** And the electrical conductivity (313.15 K, x1 = 0.16)?
**A.** 0.3845 ± 0.0027 S/m

**Q.** And the electrical conductivity (313.15 K, x1 = 0.2)?
**A.** 0.3246 ± 0.0025 S/m

**Q.** And the electrical conductivity (313.15 K, x1 = 0.25)?
**A.** 0.2502 ± 0.0022 S/m

**Q.** And the electrical conductivity (318.15 K, x1 = 0.16)?
**A.** 0.4437 ± 0.0025 S/m

**Q.** And the electrical conductivity (318.15 K, x1 = 0.2)?
**A.** 0.3858 ± 0.0024 S/m

**Q.** What about the electrical conductivity (318.15 K, x1 = 0.25) of the same compound?
**A.** 0.2964 ± 0.0016 S/m

**Q.** And the electrical conductivity (323.15 K, x1 = 0.16)?
**A.** 0.5072 ± 0.0037 S/m

**Q.** What about the electrical conductivity (323.15 K, x1 = 0.2) of the same compound?
**A.** 0.4405 ± 0.0031 S/m

**Q.** And the electrical conductivity (323.15 K, x1 = 0.25)?
**A.** 0.3265 ± 0.0028 S/m

**Q.** What about the electrical conductivity (328.15 K, x1 = 0.16) of the same compound?
**A.** 0.6279 ± 0.0041 S/m

**Q.** What about the electrical conductivity (328.15 K, x1 = 0.2) of the same compound?
**A.** 0.5395 ± 0.0037 S/m

**Q.** And the electrical conductivity (328.15 K, x1 = 0.25)?
**A.** 0.4307 ± 0.0038 S/m

**Q.** And the electrical conductivity (333.15 K, x1 = 0.16)?
**A.** 0.711 ± 0.004 S/m

**Q.** What about the electrical conductivity (333.15 K, x1 = 0.2) of the same compound?
**A.** 0.6221 ± 0.0041 S/m

**Q.** What about the electrical conductivity (333.15 K, x1 = 0.25) of the same compound?
**A.** 0.5129 ± 0.003 S/m

**Q.** What about the electrical conductivity (338.15 K, x1 = 0.16) of the same compound?
**A.** 0.8169 ± 0.0048 S/m

**Q.** What about the electrical conductivity (338.15 K, x1 = 0.2) of the same compound?
**A.** 0.7423 ± 0.004 S/m

**Q.** What about the electrical conductivity (338.15 K, x1 = 0.25) of the same compound?
**A.** 0.5797 ± 0.0036 S/m

**Q.** And the electrical conductivity (343.15 K, x1 = 0.16)?
**A.** 0.9496 ± 0.0043 S/m

**Q.** What about the electrical conductivity (343.15 K, x1 = 0.2) of the same compound?
**A.** 0.8192 ± 0.0034 S/m

**Q.** And the electrical conductivity (343.15 K, x1 = 0.25)?
**A.** 0.6923 ± 0.0032 S/m

**Q.** What about the electrical conductivity (348.15 K, x1 = 0.16) of the same compound?
**A.** 1.031 ± 0.003 S/m

**Q.** What about the electrical conductivity (348.15 K, x1 = 0.2) of the same compound?
**A.** 0.9074 ± 0.0037 S/m

**Q.** What about the electrical conductivity (348.15 K, x1 = 0.25) of the same compound?
**A.** 0.7372 ± 0.0025 S/m

**Q.** What about the electrical conductivity (353.15 K, x1 = 0.16) of the same compound?
**A.** 1.12 ± 0.0036 S/m

**Q.** And the electrical conductivity (353.15 K, x1 = 0.2)?
**A.** 1.003 ± 0.0033 S/m

**Q.** What about the electrical conductivity (353.15 K, x1 = 0.25) of the same compound?
**A.** 0.8114 ± 0.003 S/m
